Laboratory results: patent US20110223675A1, “DRUG RELEASE MEANS FROM LIPOSOMES AND METHOD FOR EVALUATING RELEASABILITY” (TERUMO KABUSHIKI KAISHA, priority 2008, published 2011)
Where a name gives a salt, the structure may show the parent alone.

Experiment: drug releasability test of liposomes in a shift reagent solution
Assay type: physicochemical
Experimental: After 1:10 dilution of the sample with a stop solution, the drug, not contained in the liposomes, was separated by ultracentrifugation to provide a sample solution. Separately, 100 μl of a VCR aqueous solution having a different concentration was taken out, to which 900 μl of water was added. Moreover, this solution was diluted with water at 1:10 to provide a reference solution for calibration curve. The sample solution and reference solution were subjected to quantitative determination under the HPLC conditions indicated before with respect to the VCR determination except that an injected amount was at 50 μl only in this determination method.
After dilution of the sample with a stop solution at 1:10, the drug, not contained in the liposomes, was separated by ultracentrifugation. 1 ml of a 0.1 mol/l dihydrogen sodium phosphate solution having a pH of 3.0 was added to and mixed with 1 ml of a supernatant of the sample obtained after the ultracentrifugation to provide a sample solution. Separately, 1 ml of a 0.1 mol/l dihydrogen sodium phosphate solution having a pH of 3.0 was added to and mixed with 1 ml of/a DXR solution having a different concentration to prepare a reference solution for calibration curve. The sample solution and reference solution were subjected to measurement under HPLC conditions indicated with respect to the DXR determination.
Release rate (%)=amount of released drug/total drug amount×100
Ammonium acetate was dissolved so as to make ammonium ion concentrations of 5, 20, 25, 50 and 100 mM and the pH of the solutions was adjusted to 7.0 by use of a 0.1 M sodium hydroxide test solution. Moreover, sodium chloride was added to the solutions so that an osmotic pressure thereof was made at 300 mOsm, thereby providing shift reagent solutions.
The liposomes shown in Preparatory Example 1 were diluted with the shift reagent solution at 1:10 and heated to 37° C. 2.5, 5, 10, 15 and 30 minutes after commencement of the heating, samples were taken out. It is to be noted that the samples were stored under ice cooling before use. The quantitative determination of released VCR was made according to the method described hereinbefore.
Ammonium acetate was dissolved so as to make an ammonium ion concentration of 50 mM, followed by controlling the pH of the solution at 4.0, 5.0, 6.0, 7.0 and 8.0 by use of a 1 M sodium hydroxide test solution. […]
The liposomes shown in Preparatory Example 1 were diluted with the shift reagent solution at 1:10 and heated at 37° C. […] The released VCR was quantitatively determined by the method set out hereinbefore. […]
The liposomes shown in Preparatory Example 1 were diluted with the shift reagent solution at 1:10 and heated at 37° C. […] The quantitative determination of the released VCR was made according to the method set out hereinbefore. […]

Row | DXR releasability (250 mM ethylenediamine/phosphate buffer solution pH 7.4, 37° C., 0-4 hours) | VCR releasability versus pH of shift reagent solution (LIP1, 50 mM ammonium acetate, pH 4.0-8.0, 300 mOsm, 37° C.) | VCR release with amino compounds as shift reagent (LIP2, 50 mM 2-aminoethanol, ethylenediamine or diethylamine, pH 7.4, 37° C.) | SMILES | VCR release versus osmotic pressure of shift reagent solution (LIP1, 50 mM ammonium acetate, pH 7.0, 100-750 mOsm, 37° C.)
1 | could be released |  |  | COc1cccc2c1C(=O)c1c(O)c3c(c(O)c1C2=O)C[C@@](O)(C(=O)CO)C[C@@H]3O[C@H]1C[C@H](N)[C@H](O)[C@H](C)O1 [DXR, Doxorubicin hydrochloride] | 
2 |  | promoted with increasing pH | can be released | CC[C@]1(O)C[C@H]2CN(CCc3c([nH]c4ccccc34)[C@@](C(=O)OC)(c3cc4c(cc3OC)N(C=O)[C@H]3[C@@](O)(C(=O)OC)[C@H](OC(C)=O)[C@]5(CC)C=CCN6CC[C@]43[C@@H]65)C2)C1 [VCR, Vincristine sulfate] | a smaller osmotic pressure of the shift reagent solution leads to more promoted release
